Test systems include K-562 leukemia; SNB-75 CNS; SR leukemia; UACC-257 melanoma; CAKI-1 renal; HCT-116 colon; MALME-3M melanoma; PC-3 prostate; TK-10 renal; SK-MEL-2 melanoma.
What all share (experiment): DTP human tumour cell line panel, 48 h

Where “and” joins values, the source holds several entries; their conditions need not be identical. Identical values can stand only once.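 Results reflect a 48-hour exposure of cells in 96-well plates to compound at five concentrations. At the GI50, growth is halved. TGI: total growth inhibition.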 Where only a bound is given, the exact number is not on record here.

As a reminder, the GI50 is the concentration at which growth is held to half of that of the control. One may read the TGI as the concentration at which net growth stops. Take `O=C(Nc1cc(-c2cccnc2)nc(NCCCN2CCOCC2)n1)c1cc(Br)cc(C(F)(F)F)c1`: the GI50 in the test on K-562 leukemia was 2800 nM; in the test with SNB-75 CNS it was 1520 nM; in the test on SR leukemia, 2600 nM; in the test on UACC-257 melanoma it was 2100 nM; in the test on CAKI-1 renal it was 2530 nM; in the test with HCT-116 colon, 2090 nM. Further, the GI50 is 1760 nM in the test on MALME-3M melanoma, 4030 nM in the test with PC-3 prostate, 5070 nM with TK-10 renal and 4520 nM in the test on SK-MEL-2 melanoma. Also, the concentration for total growth inhibition (TGI) with K-562 leukemia turned out to be 21700 nM; with SNB-75 CNS it was 3590 nM; with SR leukemia, 41700 nM; in the test with UACC-257 melanoma it was 3780 nM; with CAKI-1 renal it was 10700 nM; in the test on HCT-116 colon, 4810 nM. The concentration for total growth inhibition (TGI) with MALME-3M melanoma was 3580 nM; in the test with PC-3 prostate, 15700 nM; with TK-10 renal, 18100 nM; with SK-MEL-2 melanoma it was 17000 nM.
As for `CCOC(=O)Cc1csc(NC(=O)COC(=O)c2ccc(OC)cc2)n1`, the GI50 with K-562 leukemia was 1160 nM; with SNB-75 CNS, 28300 nM; in the test with SR leukemia, 6040 nM; in the test on UACC-257 melanoma, more than 100000 nM; in the test on CAKI-1 renal, more than 100000 nM; in the test with HCT-116 colon it was more than 91900 nM. For the same molecule, the GI50 in the test with MALME-3M melanoma was 64900 nM; in the test on PC-3 prostate it was 26500 nM; in the test on TK-10 renal, more than 100000 nM; in the test with SK-MEL-2 melanoma, more than 100000 nM. For the same molecule, the TGI was more than 60900 nM in the test on K-562 leukemia; more than 56600 nM in the test with SNB-75 CNS; more than 100000 nM in the test on UACC-257 melanoma; more than 100000 nM with CAKI-1 renal; more than 100000 nM in the test with HCT-116 colon; more than 100000 nM in the test with MALME-3M melanoma. Besides, the TGI with PC-3 prostate, with TK-10 renal and with SK-MEL-2 melanoma was more than 100000 nM throughout.
As to `CCCCCc1c(C)[nH]c(/C=C2\N=C(c3ccc[nH]3)C=C2OCc2ccccc2)c1C`, the GI50 was 37.2 nM and 44.8 nM in the test with K-562 leukemia; 80.3 nM and 21.4 nM in the test on SNB-75 CNS; 22.6 nM and 25 nM in the test on SR leukemia; 191 nM and 76.7 nM in the test on UACC-257 melanoma; 49.8 nM and 26.9 nM in the test with CAKI-1 renal; 34.3 nM and 18.6 nM with HCT-116 colon. Also, the GI50 in the test with MALME-3M melanoma is 116 nM and 58.5 nM; in the test on PC-3 prostate it was 41.3 nM and 18.3 nM; with TK-10 renal, 47.5 nM and 41.8 nM; in the test with SK-MEL-2 melanoma, 29.7 nM and 20.5 nM. The TGI with SNB-75 CNS is 577 nM and 82.5 nM; in the test on UACC-257 melanoma it was 1530 nM and 668 nM; with HCT-116 colon, 189 nM and 133 nM; in the test on MALME-3M melanoma, 494 nM and 209 nM; with PC-3 prostate, 2060 nM and 1170 nM; in the test with TK-10 renal it was 1010 nM and 471 nM. Moreover, in the test with SK-MEL-2 melanoma, the TGI is 75.3 nM and 60.9 nM.
Turning to `Cc1c(C(=O)O[C@H]2[C@@H]3[C@H](C)CC[C@H]3[C@]3(C)O[C@@]2(C2CCCCC2)C[C@H]3OC(=O)CO)ccc2ccccc12`, the GI50 was 11000 nM in the test with K-562 leukemia; 2980 nM in the test with SNB-75 CNS; 7360 nM in the test on SR leukemia; 7830 nM in the test on UACC-257 melanoma; 244 nM with CAKI-1 renal; 7570 nM in the test with HCT-116 colon. Also, the GI50 is 7240 nM in the test on MALME-3M melanoma, 6960 nM with PC-3 prostate, 8120 nM with TK-10 renal and 9190 nM in the test on SK-MEL-2 melanoma. In addition, the TGI stood at 27000 nM in the test on K-562 leukemia; 11000 nM with SNB-75 CNS; 18300 nM in the test on SR leukemia; 14800 nM in the test on UACC-257 melanoma; 6820 nM in the test with CAKI-1 renal; 14500 nM in the test with HCT-116 colon. Further, the TGI turned out to be 14500 nM in the test with MALME-3M melanoma, 15600 nM with PC-3 prostate, 15400 nM in the test on TK-10 renal and 16700 nM with SK-MEL-2 melanoma.

The values above are taken from PubChem BioAssay (NCI).
